7 compounds from patent US6627639B2, “Uses for indoletetrahydropyridine derivatives of 2,3-dihydro-7H-[1,4]dioxino-[2,3-e]indole” (Wyeth, priority 2001, dated 2003) can be followed below.

For one series, the target named is T1, serotonin transporter (Rattus norvegicus, UniProt P31652).
T1 construct: displace ^3H-paroxetine from male rat frontal cortical membranes; from tissue; host or cells: male rat frontal cortex membranes
In words: 3H-paroxetine displacement, serotonin transporter affinity. The series is classed as binding.

A further series deals with T2, human 5-HT1A receptors (Homo sapiens, UniProt P08908).
T2 construct: expressed in transfected cells; host or cells: CHO cells
T2 sequence (P08908 1-422): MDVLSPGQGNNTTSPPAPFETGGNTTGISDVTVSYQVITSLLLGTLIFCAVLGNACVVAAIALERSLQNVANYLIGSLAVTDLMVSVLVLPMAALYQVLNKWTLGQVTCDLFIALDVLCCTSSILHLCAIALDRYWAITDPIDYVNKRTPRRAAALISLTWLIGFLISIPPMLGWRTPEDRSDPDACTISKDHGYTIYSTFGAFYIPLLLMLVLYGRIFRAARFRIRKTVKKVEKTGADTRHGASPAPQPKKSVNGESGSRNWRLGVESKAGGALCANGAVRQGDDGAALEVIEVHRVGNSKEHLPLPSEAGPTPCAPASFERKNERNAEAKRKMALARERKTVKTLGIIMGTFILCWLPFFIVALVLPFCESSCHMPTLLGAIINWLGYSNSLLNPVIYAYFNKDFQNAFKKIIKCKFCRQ
Kind of series: [3H] 8-OHDPAT displacement, 5-HT1A receptor affinity. The series is classed as binding. An excerpt: High affinity for the serotonin 5-HT1A receptor was established by testing the claimed compound's ability to displace [^3H] 8-OHDPAT (dipropylaminbtetralin) from the 5-HT1A serotonin receptor following a modification of the procedure of Hall et al., J. Neurochem. 44, 1685 (1985) which utilizes CHO cells stably transfected with human 5-HT1A receptors.

For series [1], the target named is T3, cloned human 5-HT1A receptors (Homo sapiens, UniProt P08908).
T3 construct: expressed in transfected cells
T3 sequence (P08908 1-422): T2 sequence (P08908 1-422)
In words: 35S-GTPγS binding assay, 5-HT1A antagonist function. The series is classed as biochemical. Conditions: reversal of 8-OHDPAT effect on 35S-GTPγS binding. The protocol: Antagonist activity at 5-HT1A receptors was established by using a ^35S-GTPγS binding assay similar to that used by Lazareno and Birdsall (Br. J. Pharmacol. 109: 1120, 1993), in which the test compound's ability to affect the binding of ^35S-GTPγS to membranes containing cloned human 5-HT1A receptors was determined. Agonists produce an increase in binding whereas antagonists produce no increase but rather reverse the effects of the standard agonist 8-OHDPAT. The test compound's maximum inhibitory effect is represented as the Imax, while its potency is defined by the IC50.
A general note: GTPγS resists hydrolysis and so accumulates on activated G proteins.

T1 sequence (P31652 whole entry): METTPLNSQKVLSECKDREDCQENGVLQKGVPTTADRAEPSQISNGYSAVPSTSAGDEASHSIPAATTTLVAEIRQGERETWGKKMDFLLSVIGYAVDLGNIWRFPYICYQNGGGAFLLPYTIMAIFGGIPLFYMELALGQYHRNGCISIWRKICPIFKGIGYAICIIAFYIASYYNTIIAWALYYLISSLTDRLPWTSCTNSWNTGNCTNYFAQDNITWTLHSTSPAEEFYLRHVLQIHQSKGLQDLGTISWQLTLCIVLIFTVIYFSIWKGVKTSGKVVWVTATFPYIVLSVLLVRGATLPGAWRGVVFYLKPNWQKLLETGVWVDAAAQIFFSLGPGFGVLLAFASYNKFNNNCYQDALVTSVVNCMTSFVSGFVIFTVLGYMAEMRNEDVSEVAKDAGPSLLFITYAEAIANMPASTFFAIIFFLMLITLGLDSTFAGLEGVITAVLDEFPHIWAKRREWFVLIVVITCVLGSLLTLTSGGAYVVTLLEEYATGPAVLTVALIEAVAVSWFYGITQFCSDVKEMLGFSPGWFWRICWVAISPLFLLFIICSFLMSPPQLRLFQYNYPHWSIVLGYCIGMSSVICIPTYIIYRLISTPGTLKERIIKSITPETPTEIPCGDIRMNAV

As for `CCc1cc2c3c(ccc2[nH]1)OCC(CN1CC=C(c2c[nH]c4ccccc24)CC1)O3` (stereo not shown) (hydrate or solvate) [Example 4, 8-Ethyl-2-[(4-(1H-indol-3-yl)-3,6-dihydropyridin-1(2H)-yl)methyl]-2,3-dihydro-7H-[1,4]dioxino[2,3-e]indole], the melting point (commonly the temperature, or range, at which the solid turns liquid) lay within 175 to 177 °C.

As to `CCc1cc2c3c(ccc2[nH]1)OCC(CN1CC=C(c2c[nH]c4ccc(F)cc24)CC1)O3` (stereo not shown) (hydrate or solvate) [Example 5, 8-Ethyl-2-[(4-(5-fluoro-1H-indol-3-yl)-3,6-dihydropyridin-1(2H)-yl)methyl]2,3-dihydro-7H-[1,4]dioxino[2,3-e]indole], the melting point was in the range of 81 to 82 °C.

In the case of `Cc1cc2c3c(ccc2[nH]1)OCC(CN1CC=C(c2c[nH]c4ccccc24)CC1)O3` (stereo not shown) [Example 1, 2-[(4-(1H-Indol-3-yl)-3,6-dihydropyridin-1(2H)-yl)methyl]-8-methyl-2,3-dihydro-7H-[1,4]dioxino[2,3-e]indole], the melting point lay within 212 to 215 °C. Moreover, the affinity on serotonin transporter, expressed as Ki, was 3.44 nM. Moreover, the Ki (usually the equilibrium dissociation constant of an inhibitor or competing ligand from its target) on human 5-HT1A receptors was 0.45 nM. Also, in series [1], the “5-HT1A Function Imax (maximum inhibitory effect)” value was 100 and the IC50 – broadly, the concentration that inhibits the measured activity by half – is 16 nM.

Compound `C1=C(c2c[nH]c3ccccc23)CCN(CC2COc3ccc4[nH]ccc4c3O2)C1` (stereo not shown) [Example 2, 2-[(4-(1H-Indol-3-yl)-3,6-dihydropyridin-1(2H)-yl)methyl]-2,3-dihydro-7H-[1,4]dioxino[2,3-e]indole] came in with a melting point of 126 °C. The compound further displayed a Ki on serotonin transporter of 0.77 nM. On human 5-HT1A receptors, this compound returned a Ki of 1.55 nM. For the same compound, in series [1], the “5-HT1A Function Imax (maximum inhibitory effect)” value was 52 and the IC50 came out at 23 nM.

Consider `Fc1ccc2[nH]cc(C3=CCN(CC4COc5ccc6[nH]ccc6c5O4)CC3)c2c1` (stereo not shown) [Example 3, 2-{[4-(5-Fluoro-1H-indol-3-yl)-3,6-dihydropyridin-1(2H)-yl]methyl}-2,3-dihydro-7H-[1,4]dioxino[2,3-e]indole], for which the melting point came to 112 °C. The Ki at serotonin transporter amounted to 1.23 nM. This compound displayed a Ki at human 5-HT1A receptors of 2.45 nM. In series [1], the “5-HT1A Function Imax (maximum inhibitory effect)” value came out at 100 and the IC50 was determined as 11.3 nM.

With `CCc1cc2c3c(ccc2[nH]1)OCC(CN1CC=C(c2c[nH]c4ccccc24)CC1)O3` (stereo not shown) [Example 4, 8-Ethyl-2-[(4-(1H-indol-3-yl)-3,6-dihydropyridin-1(2H)-yl)methyl]-2,3-dihydro-7H-[1,4]dioxino[2,3-e]indole], the Ki at serotonin transporter stood at 10 nM; at human 5-HT1A receptors it was 4.56 nM. Moreover, the “5-HT1A Function Imax (maximum inhibitory effect)” value in series [1] is given as 78. Also, the concentration for half-maximal inhibition (IC50) in series [1] turned out to be 73 nM.

Turning to `CCc1cc2c3c(ccc2[nH]1)OCC(CN1CC=C(c2c[nH]c4ccc(F)cc24)CC1)O3` (stereo not shown) [Example 5, 8-Ethyl-2-[(4-(5-fluoro-1H-indol-3-yl)-3,6-dihydropyridin-1(2H)-yl)methyl]2,3-dihydro-7H-[1,4]dioxino[2,3-e]indole], the Ki was 10 nM on serotonin transporter and 26.3 nM at human 5-HT1A receptors. Further, the “5-HT1A Function Imax (maximum inhibitory effect)” value in series [1] was 98. Moreover, the IC50 in series [1] came out at 265 nM.
